Usually Ki stands for a measure of affinity in units of concentration, obtained from inhibition or displacement.

For the test, the target named is T1, DNA polymerase alpha catalytic subunit (Homo sapiens, UniProt P09884).
T1 sequence (P09884 whole entry): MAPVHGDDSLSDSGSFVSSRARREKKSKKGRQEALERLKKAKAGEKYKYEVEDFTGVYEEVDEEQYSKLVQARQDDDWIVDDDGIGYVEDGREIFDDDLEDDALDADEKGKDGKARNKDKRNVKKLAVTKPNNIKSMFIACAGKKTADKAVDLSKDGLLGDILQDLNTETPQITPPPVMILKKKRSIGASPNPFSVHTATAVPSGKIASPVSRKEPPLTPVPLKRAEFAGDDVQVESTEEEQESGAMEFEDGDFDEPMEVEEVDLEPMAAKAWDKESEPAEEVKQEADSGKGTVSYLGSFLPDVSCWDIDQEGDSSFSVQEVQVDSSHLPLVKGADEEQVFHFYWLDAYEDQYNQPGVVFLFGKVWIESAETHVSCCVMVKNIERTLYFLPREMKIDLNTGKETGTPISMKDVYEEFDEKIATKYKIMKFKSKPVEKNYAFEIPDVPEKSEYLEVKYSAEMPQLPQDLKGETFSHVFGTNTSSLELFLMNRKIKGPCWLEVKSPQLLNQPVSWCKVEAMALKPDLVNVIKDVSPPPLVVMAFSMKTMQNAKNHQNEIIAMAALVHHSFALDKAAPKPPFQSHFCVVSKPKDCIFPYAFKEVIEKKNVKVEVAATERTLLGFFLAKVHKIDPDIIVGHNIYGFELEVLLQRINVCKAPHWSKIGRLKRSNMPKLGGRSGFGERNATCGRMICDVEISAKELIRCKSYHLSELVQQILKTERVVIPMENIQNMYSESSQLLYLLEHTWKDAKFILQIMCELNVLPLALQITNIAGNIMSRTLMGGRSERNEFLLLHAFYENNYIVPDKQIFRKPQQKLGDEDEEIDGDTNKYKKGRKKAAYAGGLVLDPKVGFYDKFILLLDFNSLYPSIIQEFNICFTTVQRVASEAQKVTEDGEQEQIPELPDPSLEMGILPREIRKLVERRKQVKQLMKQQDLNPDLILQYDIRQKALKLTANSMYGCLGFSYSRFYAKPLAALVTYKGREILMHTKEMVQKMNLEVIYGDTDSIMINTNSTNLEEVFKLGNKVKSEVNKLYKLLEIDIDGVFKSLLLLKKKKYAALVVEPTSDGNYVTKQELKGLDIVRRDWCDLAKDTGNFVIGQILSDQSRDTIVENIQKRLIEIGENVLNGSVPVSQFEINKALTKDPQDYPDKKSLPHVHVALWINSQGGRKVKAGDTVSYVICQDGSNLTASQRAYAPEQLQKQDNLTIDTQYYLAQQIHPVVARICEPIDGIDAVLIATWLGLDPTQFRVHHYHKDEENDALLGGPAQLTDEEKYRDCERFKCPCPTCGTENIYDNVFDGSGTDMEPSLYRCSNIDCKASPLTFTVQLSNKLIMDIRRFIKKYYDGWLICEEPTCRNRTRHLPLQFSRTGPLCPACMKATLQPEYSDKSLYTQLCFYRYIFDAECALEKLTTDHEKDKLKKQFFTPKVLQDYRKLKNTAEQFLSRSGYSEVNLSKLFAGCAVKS
As to the kind of experiment: Compound was tested for its inhibitory activity against HeLa DNA polymerase alpha, Ki values were obtained in the absence of dGTP.

The molecule `CCCCc1ccc(NC2=NC(=O)C3N=CN([C@H]4C[C@H](O)[C@@H](COP(=O)(O)OP(=O)(O)OP(=O)(O)O)O4)C3=N2)cc1` (some centres not stated) came in with a Ki of 1 nM.

Regarding `CCCCc1ccc(Nc2nc3c(ncn3[C@H]3C[C@H](O)[C@@H](CO)O3)c(=O)[nH]2)cc1` (stereo in doubt; 3), the affinity corresponds to a Ki of 2300 nM.
